{
  "source": "patent US9358239B2",
  "about": "“NiSOD-like compound and its derivatives for suppressing abnormal protein aggregation, recovering cell viability, increasing mature neuron number and neurite outgrowth length and protecting dopaminergic cells by reducing oxidative stress or reactive oxygen species in brain tissues” (National Taiwan Normal University, priority 2012, dated 2016)",
  "key": {"[1]": {"system": "ATXN3/Q75 aggregation", "assay": "ATXN3/Q75-GFP aggregation, high-content analysis in Flp-In 293 cells", "assay_type": "cell-based, human", "conditions": "at 100 nM", "excerpt": "For therapies toward the polyQ diseases, we aimed to screen compounds potentially inhibiting polyQ aggregation. As removal of the N-terminal ATXN3 was required for ATXN3 aggregation, GFP-tagged ATXN3/Q14-75 C-terminal fragment was cloned to establish Flp-In 293 cells with inducible ATXN3/Q14-75-GFP expression. Refer to FIG. 2. The GFP antibody detected 40˜57 kDa ATXN3/Q14-75-GFP proteins in doxycycline (+Dox) induced ATXN3 cells. Refer to FIGS. 3A and 3B. While the expressed ATXN3/Q14 was primarily diffused, the expressed ATXN3/Q75-GFP formed aggregates. For high content aggregation analysis, these ATXN3/Q75 cells were seeded onto 96-well plate, treated with tested compounds WCt003, WCt006 and WCt021 for 8 hours, and doxycycline was added to induce ATXN3/Q75-GFP expression for 6 days. Oxaliplatin (5 μM, Sigma) was added for aggregate accumulation through inhibition of DNA synthesis. Then cells were stained with Hochest 33342 (0.1 μg/ml, Sigma) and aggregation percentage was assessed by high-content analysis (HCA) system, with excitation/emission wavelengths at 482/536 (GFP).\nRefer to FIG. 4. Cells expressing ATXN3/Q75 were examined with tested compounds WCt003, WCt006 and WCt021. […] WCt003 and WCt006 reduced the ATXN3/Q75 aggregation to 80% to 84% at 10 nM and 100 nM, and WCt021 reduced the ATXN3/Q75 aggregation to 80% to 84% at 1 nM to 100 nM. […]"}, "[2]": {"assay": "SOD Assay Kit-WST, SOD(-like) activity", "assay_type": "biochemical", "conditions": "WST-1 reduction", "excerpt": "For SOD activity, SOD enzyme from human erythrocytes (Sigma, catalog number 59636) and HEK-293 cell lysate (5×10^6/ml) were used as comparison. The SOD Assay Kit-WST from Dojindo was used to determine SOD activity. The assay utilizes WST-1 [2-(4-iodophenyl)-3-(4-nitrophenyl)-5-(2,4)-disulfophenyl-2H-tetrazolium, monosodium salt] that produces a water-soluble formazan dye upon reduction with the superoxide anion. The rate of the reduction of WST-1 with O2^− was linearly related to the xanthine oxidase (XO) activity, and this reduction was inhibited by SOD. Therefore, the IC50 (50% inhibition activity of SOD or SOD-like materials) can be determined by the colorimetric method. Refer to FIG. 6A. […] Refer to FIG. 6B. […] Refer to FIG. 6C."}, "[3]": {"assay": "DPPH free radical scavenging assay", "assay_type": "biochemical", "conditions": "absorbance at 517 nm", "excerpt": "For DPPH (1,1-diphenyl-2-picryl hydrazyl) scavenging activity, the odd electron in the stable DPPH free radical gives a strong absorption maximum at 517 nm and is purple in color. The DPPH assay measured scavenging ability of the antioxidants towards the stable radical. The free radical DPPH was reduced when it reacted with antioxidants and results in decrease in absorbance at 517 nm. The degree of discoloration indicated the scavenging potential of the antioxidant compounds. Refer to FIG. 7."}},
  "data": [
    {"compound": "O=C(CCCCCCC(=O)Nc1ccccc1)NO", "note": "[SAHA, suberoylanilide hydroxamic acid]", "values": [
      {"measurement": "ATXN3/Q75 aggregation as compared to untreated cells", "setting": "[1]", "value": 85, "unit": "%"}
    ]},
    {"compound": "SOD enzyme from human erythrocytes: SOD enzyme from human erythrocytes (Sigma), used as comparison", "values": [
      {"measurement": "IC50 (SOD activity)", "setting": "[2]", "value": 0.38, "unit": "U/ml"}
    ]},
    {"compound": "O=c1c(O)c(-c2ccc(O)cc2)oc2cc(O)cc(O)c12", "note": "[kaempferol, reference compound]", "values": [
      {"measurement": "EC50", "setting": "[3]", "value": 26.7, "unit": "µM"}
    ]}
  ]
}
